Test results from US10087399B2, “Use of alkoxylated non-ionic surfactants as additive in aqueous membrane cleaning compositions” (BASF SE, priority 2012, dated 2018).

Legend:
[1] = test system: Cobetia marina (DSMZ4741) bacterial fouling layer; assay: Cleaning of bacterial fouling layer on PA, fluorescence spectroscopy (DAPI / Concanavalin A); format: cell-based
Description: Bacterial Strain and Growth Conditions
To generate bacterial fouling layers, the marine bacterium Cobetia marina (DSMZ4741) was used in this study. The strain was purchased from the DSMZ culture collections, Germany. Sea Salt Peptone (SSP, all ingredients purchased from Sigma-Aldrich) (sea salt 20 g; peptone 18 g; deionised water 1,000 ml, pH 7.8) was used as the growth medium. The culture stock was maintained on Sea Salt Peptone Agar (SSPA, all ingredients purchased from Sigma-Aldrich) slants (sea salt 20 g; peptone 18 g; agar 30 g; deionised water 1,000 ml, pH 7.8). Prior to the experiments, the culture was grown in the SSP medium on a rotary shaker at 180 rpm at 28° C. for 20-22 h in order to obtain cells in the logphase.
Preparation of Bacterial Fouling Layers
The polyamid thin film substrates prepared on glass slides were conditioned for 24 h in artificial seawater (sea salt 20 g; deionised water 1,000 ml, pH 7.8) before being transferred to the bacterial cell suspensions. A freshly grown (logphase) bacterial suspension was prepared with an absorbance of 0.2 at a wavelength of 600 nm (DU 800, Beckman Coulter, Krefeld, Germany). The conditioned replicate slides (four for each assay) were placed into individual compartments of quadric petri dishes and 5 ml of the bacterial suspension was added thereby fully immersing the slides. The plates were placed in an incubator at 28° C. on a rotary shaker (90 rpm). After 1 h of incubation, the slides were transferred into new quadric petri dishes containing 5 ml of fresh SSP medium. The plates were incubated for another 4 h at 28° C. on a rotary shaker (90 rpm) for the attached bacteria to proliferate on the surface of the slides. At the end of the incubation, the slides were gently rinsed in artificial seawater to remove any non-adherent cells.
Cleaning Experiments with Bacterial Fouling Layers
Similar to the experiments using the multi-component molecular fouling layers, selected cleaning conditions (pH 12) and agents were tested for their ability to remove bacterial cells and EPS matrix. Additionally, the cleaning potential of the protease subtilisin (Subtilisin A type VIII from Bacillus licheniformis, 12 U/mg, Sigma-Aldrich) and methylglycine diacetic acid, sodium salt ([…], BASF SE) applied alone or in combination with the surfactant 2-propylheptanol, 6 EO, 1 PO (Lutensol⋅ XL 60, BASF SE) was evaluated. For that, the enzyme (100 μg/ml) and/or chelating agent (active concentration of 0.2%) and/or the surfactant (active concentration of 0.025%) were dissolved in 10 mM NaH2PO4 buffer (Sigma-Aldrich, pH 8.1). The bacterial fouling layers were immersed in the particular cleaning solution for 10 min at room temperature followed by rinsing in deionised water. After that, they were immediately fixed.
For fluorescence microscopy/spectroscopy and atomic force microscopy, bacterial fouling layers were fixed by transferring the respective slides into quadric petri dishes containing 4% paraformaldehyde (Sigma-Aldrich). After incubation for 15 min, the layers were rinsed with deionised water and dried by nitrogen.
For fluorescence staining, the slides were placed into custom-made incubation chambers in order to avoid backside staining. To stain the EPS matrix, Alexa 488-conjugated Concanavalin A (Molecular Probes, distributed by Invitrogen, Netherlands) dissolved in 0.1 M sodium bicarbonate (SigmaAldrich) buffer (pH 8.3) was added for 1 h in the dark (25 μg/cm^2). After incubation, the solution was removed and samples were washed with phosphate buffered saline (PBS, Sigma-Aldrich) twice. For staining of bacterial cells, DAPI solution (dissolved in PBS) was applied to Concanavalin A-stained samples for 5 min in the dark (25 μg/cm^2). After removal of the solution, the layers were washed with deionised water twice. Samples were taken out of the incubation chambers and dried by nitrogen.
Quantification of Cleaning Efficiency by Fluorescence Spectroscopy […]

[2] = Dynamic contact angle on PES; format: physicochemical; conditions: 0.2 g/l aqueous, 23° C.
Description: (§1) Determination of the Dynamic Contact Angle
(§2) The dynamic contact angle was measured with a video based high velocity measuring instrument for contact angle determination of the type OCAH 200 of the company Dataphysics Instruments 5 GmbH, Raiffeisenstr. 34, Fildersstadt, on the spin-coated glass slides.
(§3) The surfactants according to the invention listed in Tables […] used in an aqueous solution at a concentration of 0.2 g/l.
(§4) The contact angel is constantly determined (60 times per second) at 23° C. during 10 seconds after application. Under these conditions the contact angel of water without added surfactant remains at approximately at 65°. The contact angle on PA of the aqueous solutions of the branched tridecylethoxylates drops to 10° to 33°. The contact angle on PES of the aqueous solutions of the branched tridecylethoxylates drops to 17° to 37°. A contact angle after 10 seconds below 30° is preferred.

[3] = Dynamic contact angle on PA; format: physicochemical; conditions: 0.2 g/l aqueous, 23° C.
Description: as §1, §2, §3, §4

[4] = 10 mM NaH2PO4 buffer pH 8.1, surfactant 0.025%, chelating agent 0.2%, enzyme 100 μg/ml, 10 min

| Molecule | Cleaning Performance, Cells (DAPI) ([1]; 0.025%, pH 12, 10 min) | Cleaning Performance, Matrix (Concanavalin A) ([1]; 0.025%, pH 12, 10 min) | Cleaning Performance, Cells (DAPI) [1, 4] | Cleaning Performance, Matrix (Concanavalin A) [1, 4] | also measured |
| --- | --- | --- | --- | --- | --- |
| 2-Propylheptanol, 6 EO, 5 PO [Nr 38] | 52,8% | 15,2% | – | – | – |
| linear alkylbenzenesulfonate, sodium salt [Nr 41, reference compound] | 35,9% | 10,8% | – | – | – |
| CC(C(=O)[O-])N(CC(=O)[O-])CC(=O)[O-].[Na+].[Na+].[Na+] (stereo not shown) [Methylglycine diacetic acid, sodium salt, reference compound] | 73,5% | 42,5% | 47,7% | 42,5% | – |
| 2-Propylheptanol, 6 EO, 1 PO [Nr 18] | 51,7% | 9,6% | 31,8% | 16,5% | – |
| 2-Propylheptanol, 6 EO [Nr 22] | 25,1% | 0,2% | – | – | – |
| branched C13—OH, 7 EO [Nr 4] | – | – | – | – | Contact angle at 0.1 s ([2]; 0.1 s): 45.0°; Contact angle at 1 s ([2]; 1.0 s): 34.8°; Contact angle at 10 s ([2]; 10.0 s): 17.9°; Contact angle at 0.1 s ([3]; 0.1 s): 48.2 °; Contact angle at 1 s ([3]; 1.0 s): 32.3 °; Contact angle at 10 s ([3]; 10.0 s): 10.5 ° |
| Subtilisin: protease subtilisin (Subtilisin A type VIII from Bacillus licheniformis, 12 U/mg, Sigma-Aldrich) (protein, UniProt P00780 106-379, looked up) Subtilisin Carlsberg: AQTVPYGIPLIKADKVQAQGFKGANVKVAVLDTGIQASHPDLNVVGGASFVAGEAYNTDGNGHGTHVAGTVAALDNTTGVLGVAPSVSLYAVKVLNSSGSGSYSGIVSGIEWATTNGMDVINMSLGGASGSTAMKQAVDNAYAKGVVVVAAAGNSGSSGNTNTIGYPAKYDSVIAVGAVDSNSNRASFSSVGAELEVMAPGAGVYSTYPTNTYATLNGTSMASPHVAGAAALILSKHPNLSASQVRNRLSSTATYLGSSFYYGKGLINVEAAAQ | – | – | 17,8% | 10,5% | – |
